Each structure is given as a SMILES string.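 The compound was tested at five concentrations on cells cultured in 96-well plates, with a 48-hour exposure period. GI50: concentration for 50% inhibition of growth. TGI is the concentration that stops growth completely.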

Some test systems named below: OVCAR-5 ovarian; A498 renal; IGROV1 ovarian; SN12C renal; HT29 colon; ACHN renal; COLO 205 colon; M14 melanoma; OVCAR-3 ovarian.
Common to all, as to test: inhibition of tumour cell growth, NCI panel, 48 h

Regarding `O=C1Nc2cc(F)ccc2C1=O`, the TGI in the assay with OVCAR-5 ovarian, with A498 renal, in the assay with IGROV1 ovarian, in the assay on SN12C renal, in the assay with HT29 colon and in the assay on ACHN renal was above 100 µM throughout. For the same compound, the TGI with COLO 205 colon and in the assay with M14 melanoma was above 100 µM in each case.
In the case of `C[CH2][Sn]([CH2]C)([O]C(=O)c1ccc(F)cc1)[O]C(=O)c1ccc(F)cc1`, the GI50 was 30.5 µM in the assay on OVCAR-5 ovarian; 16.8 µM in the assay with A498 renal; above 80.5 µM in the assay with IGROV1 ovarian; 36 µM with SN12C renal; 63.8 µM with HT29 colon; 17.8 µM in the assay on ACHN renal. In addition, the figures for the GI50 with COLO 205 colon, in the assay with OVCAR-3 ovarian and with M14 melanoma were 20.3 µM, above 48 µM and 17.5 µM, respectively. Moreover, the TGI in the assay with OVCAR-5 ovarian was above 77.2 µM; with A498 renal it was 36.3 µM; with IGROV1 ovarian, above 100 µM; with SN12C renal, above 100 µM; with HT29 colon, above 100 µM; in the assay on ACHN renal, 32.4 µM. For the same compound, the TGI in the assay with COLO 205 colon was 39.6 µM; in the assay on OVCAR-3 ovarian, above 82.2 µM; with M14 melanoma it was 33.4 µM.
As to `NC(=O)c1ccc(Cl)c([N+](=O)[O-])c1`, the TGI in the assay on OVCAR-5 ovarian, in the assay with A498 renal, in the assay on IGROV1 ovarian, in the assay with SN12C renal, with HT29 colon and in the assay with ACHN renal was above 100 µM throughout. Moreover, the TGI with COLO 205 colon, in the assay on OVCAR-3 ovarian and in the assay with M14 melanoma was above 100 µM throughout.
For `COC(=O)CC[C@]12C[C@]13CC[C@]1(C)C4C(C)C[C@]5(CC(C)C(=O)O5)OC4CC1(C)C3CCC2C(C)(C)O` (stereo not given in full), the TGI in the assay with OVCAR-5 ovarian, with A498 renal, in the assay with IGROV1 ovarian, with SN12C renal, in the assay on HT29 colon and in the assay on ACHN renal was above 100 µM each time. Further, the TGI in the assay on COLO 205 colon, in the assay on OVCAR-3 ovarian and with M14 melanoma was above 100 µM in each case.
For `CCC(CO)Nc1nc2c(c(=O)n(C)c(=O)n2C)n1CCO` (stereo not given), the TGI in the assay on OVCAR-5 ovarian, in the assay with IGROV1 ovarian, in the assay on SN12C renal, with HT29 colon, in the assay with ACHN renal and with COLO 205 colon was above 100 µM in each case. The TGI with OVCAR-3 ovarian is above 100 µM.
Turning to `Nc1c2ccccc2nc2c(C(=O)Nc3ccc(S(N)(=O)=O)cc3)cccc12`, the TGI with OVCAR-5 ovarian, with A498 renal, in the assay with IGROV1 ovarian, in the assay with SN12C renal, with HT29 colon and in the assay on ACHN renal was above 100 µM throughout. Moreover, the TGI with COLO 205 colon, in the assay with OVCAR-3 ovarian and in the assay on M14 melanoma was above 100 µM in each case.
Take `c1ccc(OC2=NC3=S(S2)SC(Oc2ccccc2)=N3)cc1`: the TGI in the assay on OVCAR-5 ovarian came to 41.9 µM; with A498 renal it was 75 µM; in the assay on IGROV1 ovarian it was 44.7 µM; with SN12C renal, 40.8 µM; with HT29 colon, 40.2 µM; in the assay on ACHN renal, 42.5 µM. The TGI with COLO 205 colon stood at 37.2 µM; in the assay with OVCAR-3 ovarian, 28.6 µM; with M14 melanoma, 34.8 µM.
In the case of `CC(C)(C)N=NC(C)(C)N=C=O`, the TGI in the assay with OVCAR-5 ovarian, with A498 renal, in the assay with IGROV1 ovarian, with SN12C renal, with HT29 colon and in the assay with ACHN renal was above 100 µM throughout. Besides, the TGI in the assay with COLO 205 colon, in the assay on OVCAR-3 ovarian and in the assay on M14 melanoma was above 100 µM throughout.
As for `CC(=O)[O-].N.N.N.N.[Co+3].[O-][Cl+3]([O-])([O-])[O-].[OH3+]`, the GI50 with OVCAR-5 ovarian, with A498 renal, in the assay on IGROV1 ovarian, in the assay on SN12C renal, in the assay on HT29 colon and with ACHN renal was above 100 µM each time. Besides, the GI50 in the assay with COLO 205 colon, in the assay on OVCAR-3 ovarian and in the assay with M14 melanoma was above 100 µM each time. The TGI in the assay on OVCAR-5 ovarian, with A498 renal, with IGROV1 ovarian, in the assay with SN12C renal, in the assay on HT29 colon and in the assay with ACHN renal was above 100 µM each time. In addition, the TGI in the assay on COLO 205 colon, with OVCAR-3 ovarian and in the assay with M14 melanoma was above 100 µM in each case.
Regarding `C=C1C[C@@H]2C[C@@H](C)CC(O)[C@]2(CCCN)C1O` (stereo not given in full), the TGI with OVCAR-5 ovarian, with A498 renal, in the assay with IGROV1 ovarian, in the assay with SN12C renal, in the assay with HT29 colon and with ACHN renal was above 100 µM throughout. The TGI in the assay with COLO 205 colon, with OVCAR-3 ovarian and with M14 melanoma was above 100 µM in each case.
With `CC1c2[nH]c3ccccc3c2CCN1O` (stereo not given), the TGI with OVCAR-5 ovarian, in the assay on A498 renal, in the assay with IGROV1 ovarian, in the assay on SN12C renal, in the assay on HT29 colon and in the assay on ACHN renal was above 100 µM each time. In addition, the TGI in the assay with COLO 205 colon, in the assay with OVCAR-3 ovarian and with M14 melanoma was above 100 µM in each case.
Consider `COc1cc2cnc3c4cc(OCc5ccccc5)ccc4ccc3c2cc1OC`, for which the TGI was above 100 µM in the assay on OVCAR-5 ovarian; above 100 µM in the assay on IGROV1 ovarian; above 100 µM in the assay on SN12C renal; above 100 µM in the assay on HT29 colon; above 100 µM in the assay on ACHN renal; 74.9 µM in the assay with COLO 205 colon. In addition, the TGI with OVCAR-3 ovarian and in the assay on M14 melanoma was above 100 µM in each case.
For the compound `COc1ccc([C@@H]2OC(=O)C3C2C(=O)O[C@H]3c2ccc(OC)c(OC)c2)cc1OC` (stereo not given in full), the TGI with A498 renal, with IGROV1 ovarian, with SN12C renal, in the assay with HT29 colon, in the assay on ACHN renal and in the assay with COLO 205 colon was above 100 µM throughout. The TGI with OVCAR-3 ovarian and in the assay on M14 melanoma was above 100 µM in each case.

The values above are taken from PubChem BioAssay (NCI).
